# Source: ChEMBL document CHEMBL4229384, “Success stories of natural product-based hybrid molecules for multi-factorial diseases” (Eur J Med Chem, 2018)
# What was measured:
# Acetylcholinesterase [1] = target: T1, Acetylcholinesterase (Bos taurus, UniProt P23795); assay: Inhibition of bovine erythrocyte AchE using acetylthiocholine iodide as substrate after 15 mins by spectrophotometric analysis
# T1 sequence (P23795 whole entry): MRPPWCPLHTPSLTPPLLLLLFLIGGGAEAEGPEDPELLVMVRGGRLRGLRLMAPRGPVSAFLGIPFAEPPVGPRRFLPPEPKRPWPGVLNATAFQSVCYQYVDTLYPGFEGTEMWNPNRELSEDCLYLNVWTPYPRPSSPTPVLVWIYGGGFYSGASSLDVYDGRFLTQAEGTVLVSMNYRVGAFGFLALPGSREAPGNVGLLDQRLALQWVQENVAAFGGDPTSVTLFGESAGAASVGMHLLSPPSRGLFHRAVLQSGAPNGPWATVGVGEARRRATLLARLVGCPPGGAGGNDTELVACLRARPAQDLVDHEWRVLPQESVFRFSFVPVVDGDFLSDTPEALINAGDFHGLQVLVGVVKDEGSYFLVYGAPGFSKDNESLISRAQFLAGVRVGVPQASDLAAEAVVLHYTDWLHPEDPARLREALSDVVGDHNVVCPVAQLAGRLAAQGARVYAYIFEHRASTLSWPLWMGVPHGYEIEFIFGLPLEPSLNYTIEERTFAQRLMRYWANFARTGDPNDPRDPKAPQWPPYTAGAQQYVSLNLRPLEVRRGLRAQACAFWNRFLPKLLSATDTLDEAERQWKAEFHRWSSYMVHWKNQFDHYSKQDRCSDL
# [2] = target: Nitric oxide synthase, inducible (Rattus norvegicus, UniProt Q06518); assay: Inhibition of rat iNOS after 12 to 24 hrs in presence of [gamma32P]ATP by electrophoretic mobility shift assays
# MOLT-4 = assay: Antiproliferative activity against human MOLT4 cells; assay type: functional, cell-based
# UCLA P-3 = assay: Antiproliferative activity against human UCLA-P3 cells; assay type: functional, cell-based
# [3] = system: Mycobacterium tuberculosis; assay: Antitubercular activity against Mycobacterium tuberculosis H37Rv; assay type: functional
# A549 = assay: Cytotoxicity against human A549 cells assessed as reduction in cell viability; assay type: functional; conditions: read-out: ED50 (the source's name)
# [4] = Inhibition of bovine brain tubulin polymerization after 10 mins by UV-vis spectrophotometric analysis; parameters: species or system Bos taurus
# Acetylcholinesterase [5] = target: Acetylcholinesterase (Electrophorus electricus, UniProt O42275); assay: Inhibition of electric eel AChE using acetylthiocholine iodide as substrate measured for 120 secs by spectrophotometric analysis
# [6] = Antiproliferative activity against human MDA435/LCC6 cells; assay type: functional, cell-based; conditions: MDA-435/LCC6
# [7] = target: T2, Estrogen receptor (Homo sapiens) (UniProt P03372); assay: Displacement of [3H] estradiol from human estrogen receptor alpha after 18 hrs by scintillation counting analysis
# T2 sequence (whole entry): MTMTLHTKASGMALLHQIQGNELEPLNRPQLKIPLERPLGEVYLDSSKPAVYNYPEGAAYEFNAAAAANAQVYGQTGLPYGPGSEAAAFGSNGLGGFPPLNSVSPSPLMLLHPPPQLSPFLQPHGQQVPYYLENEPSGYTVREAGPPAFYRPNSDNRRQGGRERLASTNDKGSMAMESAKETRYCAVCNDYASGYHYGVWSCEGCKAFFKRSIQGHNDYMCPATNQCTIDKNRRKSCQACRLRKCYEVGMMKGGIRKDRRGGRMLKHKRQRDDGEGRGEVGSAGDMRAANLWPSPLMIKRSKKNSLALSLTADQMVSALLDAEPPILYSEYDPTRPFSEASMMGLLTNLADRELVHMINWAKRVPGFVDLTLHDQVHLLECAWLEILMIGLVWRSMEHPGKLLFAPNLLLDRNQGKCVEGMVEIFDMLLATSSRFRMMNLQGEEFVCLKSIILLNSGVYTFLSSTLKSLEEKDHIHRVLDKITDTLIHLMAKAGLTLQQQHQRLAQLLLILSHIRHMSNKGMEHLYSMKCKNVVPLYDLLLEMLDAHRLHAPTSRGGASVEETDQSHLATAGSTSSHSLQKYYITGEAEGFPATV
# Estrogen receptor [8] = target: T3, Estrogen receptor (Homo sapiens, UniProt P03372); assay: Inhibition of human estrogen receptor alpha expressed in human MDA-MB-231 cells assessed as reduction in estrogen-induced transcriptional activation after 6 hrs by beta galactosidase reporter gene assay; assay type: cell-based
# T3 sequence (P03372 whole entry): T2 sequence (whole entry)
# Estrogen receptor [9] = target: T3, Estrogen receptor; assay: Inhibition of human estrogen receptor alpha expressed in human LNCAP cells assessed as reduction in estrogen-induced transcriptional activation after 6 hrs by beta galactosidase reporter gene assay; assay type: cell-based
# Estrogen receptor [10] = target: T3, Estrogen receptor; assay: Inhibition of human estrogen receptor alpha expressed in HEK293 cells assessed as reduction in estrogen-induced transcriptional activation after 6 hrs by beta galactosidase reporter gene assay; assay type: cell-based
# Estrogen receptor [11] = target: T3, Estrogen receptor; assay: Inhibition of human estrogen receptor alpha expressed in human MCF7 cells assessed as reduction in estrogen-induced transcriptional activation after 6 hrs by beta galactosidase reporter gene assay; assay type: cell-based
# [12] = target: Amyloid-beta precursor protein (Homo sapiens, UniProt P05067); assay: Inhibition of beta amyloid (unknown origin) deposition
# [13] = Antioxidant activity assessed as reduction in oxidative stress; assay type: functional
# Acetylcholinesterase (Electrophorus electricus, UniProt O42275), sequence (O42275 whole entry): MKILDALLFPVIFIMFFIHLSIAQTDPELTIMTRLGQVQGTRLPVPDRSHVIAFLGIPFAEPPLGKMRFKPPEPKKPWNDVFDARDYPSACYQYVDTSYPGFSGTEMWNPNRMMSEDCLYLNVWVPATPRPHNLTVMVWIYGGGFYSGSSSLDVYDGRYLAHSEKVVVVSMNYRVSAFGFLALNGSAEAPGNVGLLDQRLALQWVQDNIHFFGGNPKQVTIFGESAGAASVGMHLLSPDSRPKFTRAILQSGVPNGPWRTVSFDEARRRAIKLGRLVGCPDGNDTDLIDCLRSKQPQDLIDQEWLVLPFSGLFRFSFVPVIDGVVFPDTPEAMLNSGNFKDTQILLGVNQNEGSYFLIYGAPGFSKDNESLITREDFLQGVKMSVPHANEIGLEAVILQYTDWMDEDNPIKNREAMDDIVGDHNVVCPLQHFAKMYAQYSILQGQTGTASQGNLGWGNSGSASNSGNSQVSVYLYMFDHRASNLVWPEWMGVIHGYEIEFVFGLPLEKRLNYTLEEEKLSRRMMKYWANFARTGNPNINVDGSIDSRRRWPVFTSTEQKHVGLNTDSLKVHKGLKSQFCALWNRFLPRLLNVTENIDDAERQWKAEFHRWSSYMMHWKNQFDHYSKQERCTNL
# Amyloid-beta precursor protein, sequence (P05067 whole entry): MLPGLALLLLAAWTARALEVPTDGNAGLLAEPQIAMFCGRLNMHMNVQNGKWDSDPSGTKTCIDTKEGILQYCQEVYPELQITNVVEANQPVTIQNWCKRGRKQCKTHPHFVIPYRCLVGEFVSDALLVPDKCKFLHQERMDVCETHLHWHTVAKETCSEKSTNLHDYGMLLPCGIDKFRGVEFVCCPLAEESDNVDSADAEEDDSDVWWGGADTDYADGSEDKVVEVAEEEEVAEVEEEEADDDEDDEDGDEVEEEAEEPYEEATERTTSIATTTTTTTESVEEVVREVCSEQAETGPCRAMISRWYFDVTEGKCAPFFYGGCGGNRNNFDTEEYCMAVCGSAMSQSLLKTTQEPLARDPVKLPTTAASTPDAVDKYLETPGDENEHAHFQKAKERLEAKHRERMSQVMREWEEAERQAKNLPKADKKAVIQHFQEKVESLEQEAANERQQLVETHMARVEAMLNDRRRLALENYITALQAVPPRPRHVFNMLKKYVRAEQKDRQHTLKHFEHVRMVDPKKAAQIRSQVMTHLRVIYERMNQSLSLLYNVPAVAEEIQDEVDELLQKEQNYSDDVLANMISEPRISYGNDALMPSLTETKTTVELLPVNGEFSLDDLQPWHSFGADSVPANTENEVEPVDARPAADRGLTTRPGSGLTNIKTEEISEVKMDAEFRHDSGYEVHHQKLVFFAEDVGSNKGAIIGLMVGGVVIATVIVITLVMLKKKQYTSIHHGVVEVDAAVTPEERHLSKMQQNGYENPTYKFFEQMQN
# Nitric oxide synthase, inducible, sequence (Q06518 whole entry): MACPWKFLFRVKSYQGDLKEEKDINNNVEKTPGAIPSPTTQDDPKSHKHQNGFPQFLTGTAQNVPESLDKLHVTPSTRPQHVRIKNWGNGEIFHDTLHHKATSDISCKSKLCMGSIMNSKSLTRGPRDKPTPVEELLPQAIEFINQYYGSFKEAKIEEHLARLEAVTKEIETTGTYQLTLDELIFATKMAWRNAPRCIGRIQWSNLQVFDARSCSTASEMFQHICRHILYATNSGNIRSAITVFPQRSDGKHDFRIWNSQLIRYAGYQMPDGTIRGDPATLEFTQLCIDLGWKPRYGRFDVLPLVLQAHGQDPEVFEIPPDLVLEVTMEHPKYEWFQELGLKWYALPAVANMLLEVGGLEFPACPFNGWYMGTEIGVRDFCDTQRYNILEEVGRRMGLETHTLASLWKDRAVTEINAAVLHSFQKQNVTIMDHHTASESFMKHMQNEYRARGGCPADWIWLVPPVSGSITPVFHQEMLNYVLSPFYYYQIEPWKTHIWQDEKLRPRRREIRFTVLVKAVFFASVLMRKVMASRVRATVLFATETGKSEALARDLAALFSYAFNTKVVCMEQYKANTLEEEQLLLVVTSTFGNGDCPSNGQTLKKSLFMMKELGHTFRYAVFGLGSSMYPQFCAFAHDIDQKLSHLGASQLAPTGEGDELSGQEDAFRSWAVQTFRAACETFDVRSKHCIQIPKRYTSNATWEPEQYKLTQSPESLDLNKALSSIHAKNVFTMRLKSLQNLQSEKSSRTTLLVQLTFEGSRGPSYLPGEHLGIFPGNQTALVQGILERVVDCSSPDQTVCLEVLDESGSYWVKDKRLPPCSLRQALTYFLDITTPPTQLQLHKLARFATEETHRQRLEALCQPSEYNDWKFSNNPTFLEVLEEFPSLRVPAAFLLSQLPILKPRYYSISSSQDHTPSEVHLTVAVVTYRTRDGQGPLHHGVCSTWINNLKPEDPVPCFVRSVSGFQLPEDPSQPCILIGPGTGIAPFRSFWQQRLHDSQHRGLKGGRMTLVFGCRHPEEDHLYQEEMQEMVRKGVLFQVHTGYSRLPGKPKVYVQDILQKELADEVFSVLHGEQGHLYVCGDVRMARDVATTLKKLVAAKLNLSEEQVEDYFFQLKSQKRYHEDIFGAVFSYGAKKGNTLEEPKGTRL
compound,measurement,setting,value
CC1CCC2CC(Cc3nc4ccccc4c(N)c32)C1 (stereo not given),IC50,Acetylcholinesterase [1],1.3 nM
CC1(C)CC[C@]2(C(=O)O)CC[C@]3(C)C(=CC[C@@H]4[C@@]5(C)C=CC(=O)C=C5CC[C@]43C)[C@@H]2C1,IC50,[2],900 nM
CCC1CCC2CC(Cc3nc4ccccc4c(N)c32)C1 (stereo not given),IC50,Acetylcholinesterase [1],1.15 nM
CCN[C@H]1CO[C@@H](O[C@H]2[C@H](OC[C@]34C#C/C=C\C#C[C@H]5N(C(=O)OCCS(=O)(=O)c6ccccc6)c6ccccc6[C@@]36O[C@]56CCC4)O[C@H](C)[C@@H](NO[C@H]3C[C@H](O)[C@H](SC(=O)c4c(C)c(I)c(O[C@@H]5O[C@@H](C)[C@H](O)[C@@H](OC)[C@H]5O)c(OC)c4OC)[C@@H](C)O3)[C@@H]2O)C[C@@H]1OC,IC50,MOLT-4,1 nM
same,IC50,UCLA P-3,1 nM
CCN[C@H]1CO[C@@H](O[C@H]2[C@H](OCOC[C@@]34C#CCCC#C[C@@H]5N(C(=O)OCCS(=O)(=O)c6ccccc6)c6ccccc6[C@]36O[C@@]56CCC4)O[C@H](C)[C@@H](NO[C@H]3C[C@H](O)[C@H](SC(=O)c4c(C)c(I)c(O[C@@H]5O[C@@H](C)[C@H](O)[C@@H](OC)[C@H]5O)c(OC)c4OC)[C@@H](C)O3)[C@@H]2O)C[C@@H]1OC,IC50,MOLT-4,160 nM
same,IC50,UCLA P-3,0.1 nM
C[C@@]12CC[C@@H]3[C@@](CC[C@H]4[C@@]3(C)CCC[C@@]4(C)C(=O)O)(C/C1=N\NC(=O)c1ccccn1)C2,MIC,[3],10 to 20 µg/mL
COc1ccc2c(c1)CC[C@@H]1[C@@H]2CC[C@]2(C)CO[C@@]3(C[C@@H](O)C(CO)=CO3)C[C@@H]12,EC50,A549,23000 nM
COC(=O)[C@]1(C)CCC[C@@]2(C)[C@@H]3CC[C@@]4(C)C[C@]3(CC[C@@H]21)C/C4=N\NC(=O)c1ccccn1,MIC,[3],10 to 20 µg/mL
COc1cc2c(ccc1=O)[C@H]1CC[C@]3(C)[C@@H](O)CC[C@H]3[C@@H]1CC2,IC50,[4],2100 nM
COc1ccc2c3c1O[C@H]1C[C@@H](O)CC[C@@]31CCN(CCCCCCCCN1CC[C@@]34C=C[C@H](O)C[C@@H]3Oc3c(OC)ccc(c34)C1)C2,IC50,Acetylcholinesterase [5],230 nM
CC(=O)O[C@H]1C(=O)[C@@]2(C)[C@H]([C@@H]3OC(=O)c4ccccc4OC/C=C/CC[C@H](NC(=O)OC(C)(C)C)[C@@H](O)C(=O)O[C@@H]4C[C@]3(O)C(C)(C)C1=C4C)[C@]1(OC(C)=O)CO[C@@H]1C[C@@H]2O,IC50,[6],390 nM
C[C@]12CC[C@@H]3c4ccc(O)cc4CC[C@H]3[C@@H]1CC[C@@]2(O)C#CC(=O)OCC1CC#C/C=C\C#CCC1 (stereo not given in full),Activity,[7],0.51 µM
same,IC50,Estrogen receptor [8],48000 nM
same,IC50,Estrogen receptor [9],33000 nM
same,IC50,Estrogen receptor [10],10000 nM
same,IC50,Estrogen receptor [11],31000 nM
O=C(CCCCC1CCSS1)NCCCNc1c2c(nc3cc(Cl)ccc13)CCCC2 (stereo not given) [LIPOCRINE],IC50,[12],45000 nM
same,IC50,[13],10000 nM
